Each molecule was assayed against T1, MAGE-A11:PCF11 interaction (GST-MAGE-A11 MHD and FAM-PCF11_4) (Homo sapiens, UniProt P43364) (assay: TR-FRET dose response test of compounds for disruption of MAGE-A11:PCF11 binding). Conditions: Dose response TR-FRET screening of nine scaffold groups against MAGE-A11:PCF11; read-out: consensus IC50.
T1 construct: GST-MAGE-A11 MHD (human MAGE-A11 MHD amino acid 218-429); made in house; host or cells: E. coli BL21(DE3)
T1 sequence (P43364 218-429): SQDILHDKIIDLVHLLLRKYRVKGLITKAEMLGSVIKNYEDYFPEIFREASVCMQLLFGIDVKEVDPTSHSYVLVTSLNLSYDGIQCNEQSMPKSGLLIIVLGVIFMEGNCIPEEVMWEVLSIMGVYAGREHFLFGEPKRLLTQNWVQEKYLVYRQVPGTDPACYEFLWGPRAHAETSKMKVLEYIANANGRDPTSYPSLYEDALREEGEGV
Experimental: The TR-FRET assay buffer with a formula of 50 mM Tris pH 7.5, 20 mM MgCl2, 0.1 mg/ml BSA and 1 mM DTT was freshly prepared before each experiment. All TR-FRET assays were performed in black 384-well plates with 20 µl/well assay volume in the TR-FRET assay buffer at room temperature (~25 °C). All peptides or compounds were solubilized in DMSO. To test the competitive activity of peptides or compounds against the interaction between GST-MAGE-A11 MHD and FAM-PCF11_4 peptide, 10 µl/well peptide or compound at specified concentration was dispensed into a black 384-well low volume plate, followed by 5 µl/well FAM-PCF11_4 (800 nM), 5 µl/well Tb-anti-GST (20 nM), and GST-MAGE-A11 MHD (20 nM). The assay components in each well was then mixed by shaking the plate on an IKA MTS 2/4 digital microtiter plate shaker (IKA Works; Wilmington, NC, USA) for 1 min. The plate was further centrifuged in an Eppendorf 5810 centrifuge with an A-4-62 swing-bucket rotor (Eppendorf AG, Hamburg, Germany) at 201 g for 30 s. The plate was then incubated for 90 min with a lid to avoid light exposure to the assay components. After incubation, the fluorescent emission signals at 520 nm and 490 nm channels of individual wells were measured with a PHERAstar FS plate reader (BMG Labtech; Durham, NC, USA) by using a 340 nm excitation filter, 100 µs delay time, and 200 µs integration time. The TR-FRET fluorescence emission ratio (TR-FRET signal) for each well was presented as 10,000 × 520 nm/490 nm, which was used directly for curve fitting, or further converted to %Inhibition based on the respective positive and negative controls. The graphic software GraphPad Prism 4.81 (GraphPad Software; La Jolla, CA, USA) was used to generate curves and derive IC50 values of tested peptides or compounds, if applicable.
TR-FRET screen for identifying MAGE-A11 small molecule inhibitors was performed as follows. The primary one-concentration screening and subsequent 10 or 20-concentration dose-response tests were accomplished with an automated High Throughput Screening system (HighRes Biosolutions, Beverly, MA)[30]. In the primary screening, 15 µl/well FAM-PCF11_4 (267 nM) was first dispensed with a Multidrop Combi Reagent Dispenser (Thermo Fisher Scientific, Waltham, MA) to black 384-well low-volume assay plates. The plates were spun down with a Velocity11 VSpin microplate centrifuge (Agilent Technologies, Santa Clara, CA). In total, 30 nl/well of 10 mM compound/DMSO solutions, or DMSO alone, were transferred from compound plates (the St. Jude FDA drug and bioactive library, Drug-like library and Lead-like library) or a control plate to the assay plates with a Pin Tool (V&P Scientific, San Diego, CA). The compounds were arrayed in columns 3–12 and columns 15–24 of compound plates. The controls were arrayed in columns 1, 2, 13, and 14 of a compound plate. In all, 5 µl/well Tb-anti-GST (20 nM) and GST-MAGE-A11 (20 nM) or 5 µl/well Tb-anti-GST (20 nM) alone was then dispensed to selected wells with a Multidrop Combi Reagent Dispenser. The final assay volume was 20 µl/well. The final DMSO concentration was 0.25% (v/v) (0.1% (v/v) from the FAM-PCF11_4 DMSO stock solution and 0.15% (v/v) from the compound-DMSO solution or the DMSO for the control wells). The final tested compound concentration was 15 µM. The final FAM-PCF11_4 concentration was 200 nM and the final Tb-anti-GST concentration was 5 nM. The final GST-MAGE-A11 concentration was 5 nM except for those selected positive control wells in which GST-MAGE-A11 was not presented. The plates were then shaken with a big bear shaker (Big Bear Automation, Santa Clara, California) and spun down with the Velocity11 VSpin microplate centrifuge for 20 s. The plates were then incubated at room temperature in a Liconic incubator (Liconic US, Woburn, MA) for 90 min. The TR-FRET signals for individual wells were measured with a PHERAstar FS plate reader. The %Inhibition of each tested inhibitor was calculated by using Eq. 1.

| SMILES | IC50 |
| --- | --- |
| COc1cccc(CNCCCNc2ccnc3cc(Cc4cc(C)cc(C)c4)ccc23)c1O [SJ000311319-1] | 23.6 µM |
| C=CCn1c(=O)c2c(nc(-c3ccc(S(=O)(=O)O)cc3)n2C)n(C)c1=O [SJ000287614-4] | > 70 µM |
| COc1cc(Cc2ccc3c(NCCCNCc4cc(F)ccc4OC)ccnc3c2)cc(OC)c1 [SJ000311313-1] | 33.8 µM |
| CC(C)CCc1ccc2c(NCCCNCc3cccc4c3OCO4)ccnc2c1 [SJ000311248-1] | 27.7 µM |
| c1ccc(Oc2ccc3c(NCCCNCc4cccc5c4OCO5)ccnc3c2)cc1 [SJ000311208-1] | 30.1 µM |
| c1ccc(CCc2ccc3c(NCCCNCc4cccc5c4OCO5)ccnc3c2)cc1 [SJ000311257-1] | 62.3 µM |
| COc1cccc(CNCCCNc2ccnc3cc(Cc4ccc(F)cc4Cl)ccc23)c1O [SJ000311323-1] | 17.6 µM |
| CCC(CC)c1ccc2c(NCCCNCc3cccc4c3OCO4)ccnc2c1 [SJ000311268-1] | 28.9 µM |
| COc1ccc(Oc2ccc3c(NCCCNCc4cccc(OC)c4O)ccnc3c2)cc1 [SJ000311219-1] | 29 µM |
| NC1=C(N2CCCCC2)C(=O)c2ccccc2C1=O [SJ000294373-2] | 20.1 µM |
| Cc1cc(C)cc(Cc2ccc3c(NCCCNCc4cccc5c4OCO5)ccnc3c2)c1 [SJ000311320-1] | 16.3 µM |
| CC1CN(c2oc(-c3ccccc3F)nc2S(=O)(=O)c2ccc(F)cc2)CC(C)O1 (stereo not shown) [SJ000329067-1] | 27.3 µM |
| c1cc(CNCCCNc2ccnc3cc(-c4ccc5c(c4)OCO5)ccc23)c2c(c1)OCO2 [SJ000311292-1] | 30.5 µM |
| c1ccc(Cc2ccc3c(NCCCNCc4cccc5c4OCO5)ccnc3c2)cc1 [SJ000311308-1] | 46.1 µM |
| CCCS(=O)(=O)N1CCN(Cc2ccc3c(c2)c2ccccc2n3CC)CC1 [SJ000167951-1] | 19.2 µM |
| COc1ccc(Oc2ccc3c(NCCCNCc4cccc5c4OCO5)ccnc3c2)cc1 [SJ000311220-1] | 43.7 µM |
| COc1cccc(CNCCCNc2ccnc3cc(Oc4ccc(Cl)cc4)ccc23)c1O [SJ000311227-1] | 20.7 µM |
| COc1cc2nc(N3CCN(C(=O)C4COc5ccccc5O4)CC3)nc(N)c2cc1OC (stereo not shown) [SJ000113084-10] | 57.1 µM |
| COc1cccc(CNCCCNc2ccnc3cc(Cc4cccc(C(F)(F)F)c4)ccc23)c1O [SJ000311299-1] | 27.5 µM |
| COc1cccc(Oc2ccc3c(NCCCNCc4cccc5c4OCO5)ccnc3c2)c1 [SJ000311216-1] | 36.9 µM |
| CCCOc1ccc(C2Nc3ccccc3C(=O)N2CCCN2CCOCC2)cc1 (stereo not shown) [SJ000803758-1] | > 70 µM |

Results, then the molecule that gave them:

| IC50 | SMILES |
| --- | --- |
| 13 µM | Cc1ccc(S(=O)(=O)c2nc(-c3ccccc3Cl)oc2N2CC(C)OC(C)C2)cc1 (stereo not shown) [SJ000329066-1] |
| 12.8 µM | FC(F)(F)c1cccc(Cc2ccc3c(NCCCNCc4cccc5c4OCO5)ccnc3c2)c1 [SJ000311300-1] |
| 12.2 µM | COc1ccc(F)cc1CNCCCNc1ccnc2cc(Cc3c(Cl)cccc3Cl)ccc12 [SJ000311317-1] |
| 11.2 µM | Cc1ccc(S(=O)(=O)c2nc(-c3cccc(C)c3)oc2N2CCOCC2)cc1 [SJ000027480-1] |
| 9.95 µM | CCC(CC)c1ccc2c(NCCCNCc3cccc(OC)c3O)ccnc2c1 [SJ000311267-1] |
| 9.87 µM | O=C1C(Cl)=C(NC(=O)C(F)(F)F)C(=O)c2ccccc21 [SJ000024928-1] |
| 9.54 µM | Cc1ccc(S(=O)(=O)c2nc(-c3cccc([N+](=O)[O-])c3)oc2N2CCOCC2)cc1 [SJ000027482-1] |
| 9.2 µM | O=S(=O)(c1ccc(Cl)cc1)c1nc(-c2cccc(Br)c2)oc1N1CCOCC1 [SJ000027481-1] |
| 8.71 µM | CCCCOc1ccc(N(C(C)=O)C2=C(Cl)C(=O)c3ccccc3C2=O)cc1 [SJ000032717-1] |
| 8.67 µM | CC(C)(C)c1ccc(Oc2ccc3c(NCCCNCc4cccc5c4OCO5)ccnc3c2)cc1 [SJ000311236-1] |
| 6.87 µM | CC(C)(C)c1ccc(-c2ccc3c(NCCCNCc4cccc5c4OCO5)ccnc3c2)cc1 [SJ000311288-1] |
| 6.29 µM | COc1ccc(F)cc1CNCCCNc1ccnc2cc(Oc3ccc(C(C)(C)C)cc3)ccc12 [SJ000311237-1] |
| 5.63 µM | COc1ccc(F)cc1CNCCCNc1ccnc2cc(Oc3cccc(N(C)C)c3)ccc12 [SJ000311233-1] |
| 4.67 µM | COc1cccc(CNCCCNc2ccnc3cc(-c4ccc(C(C)(C)C)cc4)ccc23)c1O [SJ000311287-1] |
| 2.64 µM | CCCCCn1c(-c2ccc(F)c(Br)c2)nc2c1c(=O)[nH]c(=O)n2CCCC [SJ000378900-1] |
| 2.25 µM | O=C1C(Cl)=C(NCCN2CCOCC2)C(=O)c2ncccc21 [SJ000312204-6] |

Same assay, conditions: Supplementary Data 3, 59 quinoline compounds; read-out: TR-FRET IC50

| IC50 | SMILES |
| --- | --- |
| > 70 µM | c1coc(CNCCCNc2ccnc3cc(-c4cccc5ccccc45)ccc23)c1 [SJ000311274-1, C(CNCc1occc1)CNc2ccnc3cc(ccc23)c4cccc5ccccc45] |
| > 70 µM | Cc1ccc(F)cc1CN(CCCCNc1ccnc2cc(Cl)ccc12)Cc1ccccc1 [SJ000520449-1, Cc1ccc(F)cc1CN(CCCCNc2ccnc3cc(Cl)ccc23)Cc4ccccc4] |
| 32.2 µM | c1ccc(Cc2ccc3c(NCCCNCc4ccco4)ccnc3c2)cc1 [SJ000311306-2, C(CNCc1occc1)CNc2ccnc3cc(Cc4ccccc4)ccc23] |
| > 70 µM | c1coc(CNCCCNc2ccnc3cc(-c4ccc5c(c4)OCO5)ccc23)c1 [SJ000311290-1, C(CNCc1occc1)CNc2ccnc3cc(ccc23)c4ccc5OCOc5c4] |
| > 70 µM | Clc1ccc(CN(CCCCNc2ccnc3cc(Cl)ccc23)Cc2ccccc2)c(Cl)c1 [SJ000361207-2, Clc1ccc(CN(CCCCNc2ccnc3cc(Cl)ccc23)Cc4ccccc4)c(Cl)c1] |
| > 70 µM | CCCN(CCCNc1ccnc2cc(Cl)ccc12)Cc1cc(C(F)(F)F)ccc1OC [SJ000523012-1, CCCN(CCCNc1ccnc2cc(Cl)ccc12)Cc3cc(ccc3OC)C(F)(F)F] |
| 41.7 µM | Clc1ccc2c(NCCCN(Cc3ccccc3)Cc3ccc4[nH]ccc4c3)ccnc2c1 [SJ000520430-1, Clc1ccc2c(NCCCN(Cc3ccccc3)Cc4ccc5[nH]ccc5c4)ccnc2c1] |
| > 70 µM | FC(F)(F)c1ccc2c(NCCCNCc3cc(Br)cs3)ccnc2c1 [SJ000521056-1, FC(F)(F)c1ccc2c(NCCCNCc3cc(Br)cs3)ccnc2c1] |
| > 70 µM | CCCN(CCCNc1ccnc2cc(Cl)ccc12)Cc1ccc2ccccc2c1 [SJ000523040-1, CCCN(CCCNc1ccnc2cc(Cl)ccc12)Cc3ccc4ccccc4c3] |
| > 70 µM | CCCN(CCCNc1ccnc2cc(C(F)(F)F)ccc12)CC1CCCCC1 [SJ000361268-1, CCCN(CCCNc1ccnc2cc(ccc12)C(F)(F)F)CC3CCCCC3] |

| SMILES | IC50 |
| --- | --- |
| COC(=O)CCCCCNCCCNc1ccnc2cc(Cl)ccc12 [SJ000521021-1] | 31.4 µM |
| Clc1ccc(Oc2ccc3c(NCCCNCc4ccco4)ccnc3c2)cc1 [SJ000311226-1, Clc1ccc(Oc2ccc3c(NCCCNCc4occc4)ccnc3c2)cc1] | > 70 µM |

Reference: article PMC7529893, “Structural basis for substrate recognition and chemical inhibition of oncogenic MAGE ubiquitin ligases” (Nature Communications, 2020)
